# Measurements from patent publication US20040126359A1, “Hedgehog” (priority 2001, published 2004).
# Key:
# human CD8 T-cells = assay: Proliferation of human CD8 T-cells cultured with Shh N-terminal active peptide (3H thymidine); type: cell-based; conditions: activated CD8+ T-cells; dose dependent
# [1] = tested on: mouse spleen cells and purified CD4+ T-cells; assay: Survival in culture by Trypan blue staining; type: cell-based; conditions: no activation; Shh 10 and 100 ng/ml; 4 day time frame
# Protocol: Survival was measured by Trypan blue staining of dead and alive cells in culture;
# Cells cultured in medium without Shh were used as controls;
# CD4+ T-cells [2] = assay: Taqman real time PCR of Shh, Ihh, HIP and Ptc expression in CD4+ T-cells (FIGS. 14, 15, 17); type: cell-based
# Protocol: Expression in medium, in the presence of 50 ng/ml IL-10 and in the presence of 50 ng/ml IFN-γ was compared to expression in resting CD4+ T-cells;
# Similar experiments were used to study the expression of Shh (FIG. 4) and Ptc (FIG. 5) in T-cells and the expression of components of the Hh signalling pathway in lymphoid tissues (FIG. 6). FIG. 14 illustrates the results of an RT-PCR analysis of Shh, Ihh, Hip and Ptc expression. Activation of T-cells induced a sustained and marked (approximately 80-fold) increase in Shh mRNA, peaking at 44 and 72 hours. It lead to a downregulation of Ptc.
# CD4+ T-cells [3] = assay: Two-colour FACS analysis of CD69 and CD25 expression; type: cell-based; conditions: CD4+ T-cells activated 72 hours with anti-CD3 and anti-CD28, Shh 100 ng/ml
# Gli2-/Gli3- mice cells = assay: Cell cycle / survival analysis in Gli2-/Gli3- mice cells; type: cell-based, mouse; conditions: Shh 10 and 500 ng/ml
# Protocol: Cell survival was measured in Gli2^−/Gli3^− mice cells (i.e. from mice in which one allele each of Gli2 and Gli3 were deleted from the genome) in the presence (10 ng/ml and 500 ng/ml) and absence of Shh;
# The CD4^+ T-cells were cultured as above in 48-well plates with and without addition of exogenous Shh or 5E1. At 72 hr post-activation, the cells were spun at 13,000 rpm for 7 min then re-suspended in citrate buffer. Cell cycle analysis was carried out using the Vindelov method (Vindelov et al, 1990). Briefly, the cells were trypsinized (Sigma) to expose the nucleus before being stained with propidium iodide (Sigma). Cell cycle analysis was then performed on an Epics© XL flow cytometer (Beckman Coulter UK Ltd, Bucks, UK). The machine counted 30,000 nuclei in each sample and the software analysed the % of cells in each stage of the cell cycle sub-G1, G1, S phase and G2/M. From these figures, the % of live cells (G1, S and G2/M) was calculated, and from this, the % of live cells in G1 and S/G2 phases.
# CD4+ T-cells [4] = assay: Real time PCR of Shh, ptc, Gli1 and bcl-2 transcripts in sub-optimally activated CD4+ T-cells; type: cell-based, mouse
# Protocol: CD4^+ T-cells were cultured as above in 48 well plates with and without addition of exogenous Shh or 5E1. At various time points (24 hr, 48 hr, 72 hr) post-activation, the CD4^+ T-cells were spun at 300 g for 7 mins then resuspended in lysis buffer provided as part of the RNeasy kit used for the RNA isolation (Qiagen Ltd, Crawley, UK). Any contaminating DNA was then digested by treating the RNA with DnaseI (Life Technologies) according to the manufacturer's instructions. In order to check that no contaminating DNA remained, a PCR was carried out using genomic β-actin primers (forward primer 5′-CCACCAACTGGGACACATG-3′ (SEQ ID NO:10) and reverse primer 5′-[…]-3′ (SEQ ID NO:11)) (MWG-Biotech AG). The PCR program was as follows: 35 cycles of 30 secs at 94° C., 1 min at 58° C., 2 mins at 72° C. followed by a 5 min 72° C. extension then 4° C. hold. This was carried out on a PTC-200 Peltier thermal cycler (MJ Research Inc., Massachusetts, USA).
# Unless otherwise stated all materials for real time PCR were supplied by Applied Biosytems UK, Cheshire, UK. 400 ng of RNA was reverse transcribed using the Multiscribe RT kit. Samples were incubated for 10 min at 25° C., 40mins at 48° C. then 5 min at 95° C. to allow the reverse transcription to take place. cDNA samples were then diluted 1:5 in nuclease-free water (Promega). The PCR step was carried out using Taqman Universal PCR Mastermix, a primer/probe mix specific to the gene of interest and a primer/probe mix specific to 18s rRNA control reagent. The following primer/probe sequences were used:
# These probes were all labelled with the fluorescent dye fam (6-carboxy-fluorescein). The primer/probe mix for 18S was supplied by Applied Biosystems which was labelled with the fluorescent dye vic™. Each cDNA sample was run in duplicate 25 μl volumes on a capped 96-well optical reaction plate. The plate was run in the ABI Prism 7700 sequence detector using SDS software. The PCR conditions were as follows: 50° C. for 2 min, 95° C. for 10 min then 40 cycles of 15 sec at 95° C. and 1 min at 60° C. The software then analysed the data and output a pair of ‘ct’ values for each sample. ‘Ct’ is the number of cycles needed to result in a signal crossing a set threshold. Each sample yielded two ct values, one for the gene of interest and one for the 18S house keeping control. The ct values were then transported to a Microsoft Excel spreadsheet and analysed to give a value representing the relative mRNA levels present for the gene of interest linearly as per the manufacturers instructions.
# In order to analyse the mechanisms of Shh amplification of TCR mediated activation in CD4^+ T-cells, the kinetics of expression of components of the Shh signalling pathway and bcl-2 were analysed in activated CD4^+ T-cells in the presence and absence of exogenous Shh. CD4^+ T-cell cultures were set up as before, sub-optimally activated with anti-CD3/CD28 and Shh was added at t=0. RNA was extracted at 24, 48 and 72 hr post-activation. It has been reported that a 2× or greater increase in the transcription of any gene on at least 2 occasions is considered to be significant (Chtanova et al and Granucci et al).
# [5] = Shh added to activated T-cell cultures
# [6] = Shh peptide at t=0, 24, 48, 72 hr
substance,measurement,setting,value
Shh peptide: Recombinant mouse Shh amino-terminal peptide (R&D systems); biologically active N-terminal Sonic hedgehog fragment,incorporation of 3H-thymidine,human CD8 T-cells,significantly enhances
same,survival in culture,[1],enhances their survival
same,Hip expression,CD4+ T-cells [2]; [5],up-regulated
same,Ihh expression,CD4+ T-cells [2]; [5],down-
same,effect on Ptc downregulation,"CD4+ T-cells [2]; activated T-cells, Shh addition",does not appear to affect
same,Shh mRNA expression,"CD4+ T-cells [2]; activated T-cells, Shh addition, 24 hours, 40 cycles of PCR (limit of assay)",no signal is detected
same,CD25 expression in CD3 positive T-cells,CD4+ T-cells [3]; activated only 31.64%,80.46%
same,CD69 expression in CD3 positive T-cells,CD4+ T-cells [3]; activated only 33.87%,70.57%
same,"effect on survival / apoptosis (live cells, sub-G1 pool)",Gli2-/Gli3- mice cells,promotes apoptosis
same,level of transcription of Gli1 vs media only activated cultures,CD4+ T-cells [4]; [6],No difference
same,level of transcription of ptc vs media only activated cultures,CD4+ T-cells [4]; [6],No difference
same,transcription of Shh vs media only activated cultures,"CD4+ T-cells [4]; Shh peptide at t=0, 24 hr",significantly reduced
same,transcription of bcl-2 vs media only activated cultures,"CD4+ T-cells [4]; Shh peptide at t=0, 72 hr",significantly increased
same,"Bcl-2 transcripts, time course normalised to 24 hr sample",CD4+ T-cells [4]; in presence of exogenous Shh,increased at 48 hr and at 72 hr
same,"Gli1 transcription, time course normalised to 24 hr sample",CD4+ T-cells [4]; in presence of exogenous Shh,increased at 48 hr and was maintained at 72 hr
same,"Shh transcription, time course normalised to 24 hr sample",CD4+ T-cells [4]; in presence of exogenous Shh,increased both at 48 hr and 72 hr
same,"ptc transcription, time course normalised to 24 hr sample","CD4+ T-cells [4]; in presence of exogenous Shh, 72 hr",marginally higher
